Measured values as given in patent publication US9789080B2, “Ophthalmic formulations of mycophenolic acid” (INSITE VISION INCORPORATED, priority 2015, dated 2017).

How the values were obtained:
[1] = Merck Index 14th Ed. 2006, monograph no. 6327; cited from earlier work
[2] = dissolution of active ingredient in aqueous medium as a function of pH; type: physicochemical; conditions: pH of aqueous medium adjusted to greater than 7.0
Description: In an embodiment of the present disclosure, the pH of an ophthalmic formulation including mycophenolic acid or salt thereof in an aqueous medium with a reduced level of oxygen dissolved in the ophthalmic formulation can be adjusted to a pH of greater than 7.0, e.g., at least about 7.4, such as at least about 7.8. In an embodiment, the ophthalmic formulation of the present disclosure has a pH in a range of 7.4 to 7.8 with a specification of ±0.3 pH units.

## COc1c(C)c2c(c(O)c1C/C=C(\C)CCC(=O)O)C(=O)OC2 [mycophenolic acid]
[1]
  solubility in cold water: almost insoluble
[2]
  dissolution of the active ingredient: facilitates dissolution
